Measurements: patent publication US7527935B2, “G-protein coupled receptor having eicosanoid as ligand and gene thereof” (Mitsubishi Tanabe Pharma Corporation, priority 2002, dated 2009)

What was measured:
[1] = tested on: TG1019 (5-oxo-ETE receptor); assay: Intracellular calcium level in CHO cells stably expressing TG1019; format: cell-based, human; conditions: FuraII 340/380 nm ratio
Description: (1) Preparation of cells stably expressing TG1019 Cells stably expressing TG1019 (the receptor protein of the present invention) and cells not expressing TG1019 were prepared by introducing to CHO cells the TG1019 protein expression vector prepared in Example 5 and the control vector, as described below.
The cells stably expressing TG1019 prepared in the above section (1) was incubated in DMEM/F12 medium supplemented with 10% fetal bovine serum at 37° C. in a CO2 incubator. To the cells which were 80 to 90% confluent, was added a cell dissociation buffer (Cell Dissociation Buffer Enzyme-free PBS-based, available from Invitrogen), and cells were dissociated by incubating at 37° C. for 5 minutes. […]
The cells after loading were centrifuged once with an assay buffer, to remove supernatant, and then, they were suspended in an assay buffer to have a concentration of 3.7 to 6.3×10^6 cells/ml. This cell suspension was portioned into a 96 well plate by 80 μl/well, and the plate was set in a fluorescence measuring device (FDSS6000, [Hamamatsu Photonics]), and the reaction was started by adding a solution containing 5-oxo-ETE or 5-HETE in a 5 fold concentration dissolved in an assay buffer, by 20 μl/well. The measurement was done by measuring fluorescence intensity at 510 nm, with excitation wavelength of 340 nm and 380 nm.

[2] = biological target: T1, fusion protein of TG1019 protein and Gqα (Homo sapiens, UniProt Q8TDS5, D111G/K206E/T295A); assay: [35S]GTPγS binding to membrane fraction containing TG1019-Gqα fusion protein; format: biochemical; conditions: membrane fraction with TG1019-Gqα fusion protein; increase small compared to Giα
T1 construct: made in house; host or cells: Sf9 insect cells (baculovirus, pVL1392), membrane fraction
Excerpt: As stated in Example 1, it is concluded that TG1019 protein is a G-protein coupled receptor. Therefore, using a membrane fraction containing fused protein of TG1019 and G-protein, a ligand is identified as follows, according to a method for detecting a ligand-dependent binding with GTPγS (guanosine 5′-O-(3-thiotriphosphate)) [Wenzel-Seifert, et al., Mol. Pharmacom., Vol. 58, pp. 954-966, 2000; Bahia, et al., Biochemistry, Vol. 37, pp. 11555-11562, 1998].
Sf9 cells were inoculated onto a 10 cm Petri dish coated with collagen to about 70% confluence, and added thereto were Virus solution III (100 μl) obtained above and 12 ml of a culture medium, and the mixture was cultured at 27° C. for 4 days. […]
The membrane fraction (450 μl) obtained above (2) was suspended in a reaction buffer (7.54 ml), and added thereto was GDP (10 mM, 10 μl). […] GTPγS (a binding amount to the membrane fraction) on the filter was measured by liquid scintillation counting. From the thus measured [^35S] GTPγS binding amount was subtracted a nonspecific binding amount (a binding amount measured in the presence of 10 μM GTPγS), to obtain a specific binding amount of [^35S ] […]

[3] = tested on: PC3 human prostate cancer cells; assay: Apoptosis analysis (annexin V / PI flow cytometry) in PC3 cells; format: cell-based; conditions: 20 μl of 100 μM 5-oxo-ETE added together with DHA, 2 hours
Description: PC3 human prostate cancer cells, which had been cultured in RPMI1640 culture medium supplemented with 10% fetal bovine serum were dissociated by trypsin-EDTA solution (GibcoBRL), and suspended in RPMI1640 culture medium supplemented with 0.5% fetal bovine serum. The cells were plated onto a 6 cm Petri dish to 2×10^5 cells/dish, and cultured at 37° C. for 18 hours in a CO2 incubator. The supernatant was removed and 1980 μl of the same medium was added, and 20 μl of 1 mM DHA was further added thereto, and the mixture was cultured at 37° C. for 2 hours in a CO2 incubator.
In addition, as a test in the presence of 5-oxo-ETE, 1960 μl of RPMI1640 culture medium supplemented with 0.5% fetal bovine serum was added, and 20 μl of a 100 μM 5-oxo-ETE solution and 20 μl of a 1 mM DHA solution were further added thereto, and the cells were cultured in a similar manner as described above.
The adhered cells were removed by a cell scraper, transferred to a 1.5 ml tube, and centrifuged at 800×g for 5 minutes at 4° C., to collect suspended and adhered cells. […] The cells were suspended in 100 μl of a FITC-Annexin solution, and after 15 minutes of reaction under light-shielded condition at room temperature, 300 μl of Binding buffer was added thereto, and the FITC-Annexin bound to the cells and propidium iodide (PI) uptake into the cells were measured, by means of flow cytometer [Becton Dickinson].

T1 sequence (Q8TDS5 with tags, fused parts or gaps D111G/K206E/T295A): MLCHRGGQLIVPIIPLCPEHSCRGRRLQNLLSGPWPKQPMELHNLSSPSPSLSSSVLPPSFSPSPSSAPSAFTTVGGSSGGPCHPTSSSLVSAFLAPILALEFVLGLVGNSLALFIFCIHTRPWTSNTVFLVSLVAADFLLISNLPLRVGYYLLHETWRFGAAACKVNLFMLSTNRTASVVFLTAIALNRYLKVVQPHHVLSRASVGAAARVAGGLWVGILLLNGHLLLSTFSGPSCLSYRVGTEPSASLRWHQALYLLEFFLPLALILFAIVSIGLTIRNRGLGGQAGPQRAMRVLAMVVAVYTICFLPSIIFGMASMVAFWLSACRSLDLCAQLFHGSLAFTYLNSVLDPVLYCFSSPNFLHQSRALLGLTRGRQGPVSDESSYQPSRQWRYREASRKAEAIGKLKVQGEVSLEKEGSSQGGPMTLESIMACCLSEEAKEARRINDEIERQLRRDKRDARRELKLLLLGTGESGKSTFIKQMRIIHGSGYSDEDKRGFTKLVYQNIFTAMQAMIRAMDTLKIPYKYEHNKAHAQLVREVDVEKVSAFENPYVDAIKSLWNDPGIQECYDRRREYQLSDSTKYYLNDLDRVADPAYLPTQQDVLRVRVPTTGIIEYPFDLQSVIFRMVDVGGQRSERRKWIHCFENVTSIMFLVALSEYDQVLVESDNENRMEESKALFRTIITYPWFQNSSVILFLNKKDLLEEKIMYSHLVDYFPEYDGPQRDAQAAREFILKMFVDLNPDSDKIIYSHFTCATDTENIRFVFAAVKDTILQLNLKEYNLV

Compound: CCCCC/C=C\C/C=C\C/C=C\C=C\C(=O)CCCC(=O)O [5-oxo-ETE, 5-oxo-6E,8Z,11Z,14Z-eicosatetraenoic acid]
- change in intracellular calcium level [1]: increase in intracellular calcium level
- specific binding amount of [35S]GTPγS [2]: increased
- effect on DHA induction of apoptosis [3]: the induction of apoptosis was inhibited
